From patent US9034793B2, “Use of ribose to enhance plant growth” (Bioenergy, Inc., priority 2002, dated 2015)
Where “and” joins values, the source holds several entries; their conditions need not be identical. Equal values may be shown once.

Key:
bean seeds [1] = assay: Plant growth and yield from bean seeds, daylight or darkness (Example 2); type: in vivo
Experimental: Three different treatments were explored on bean seeds to determine the effects of ribose (at two different doses) on plant growth and proliferation. [The three treatments include control (plain water), a 0.1332 M solution of ribose (5 g D-ribose dissolved in 250 ml water), and a 0.0666 M solution of ribose (5 g D-ribose dissolved in 500 ml water)]. The plants were kept under two different conditions, normal daylight and darkness. A total of six plants will be tested, with the conditions that each plant were tested at listed below. Treatments: [table] Each seed was planted under identical conditions (soil and pot size) and all at the same time. The environmental conditions (such as temperature and humidity), except for lighting, were kept constant for all the plants. Once potted, each seed received one to two tablespoons of treatment liquid (as mentioned above). A daily record was kept of the activity of each plant. Watering was done on every other day (or sooner if the soil was deemed too dry by the researcher), each again receiving one tablespoon of treatment liquid. Assessment of the effects of ribose fertilization was determined by measuring the time to the first appearance of a plant from the soil, the rate of growth, and leaf size. Table 3 represents the accumulated plant growth data from Example 2 and FIGS. 3 and 4 are graphic presentations of plant growth during light and dark conditions.

bean seeds [2] = assay: Root growth assessment (Example 3); type: in vivo; conditions: for Root appearance: 2 weeks, compared with water treated roots
Excerpt: Identical sized pots, containing the same consistency of soil media, were used in assessing root growth. Bean seeds of similar size were chosen. One seed was planted in each pot. The depth in the soil for each seed that was planted was the same. Paired pots (total of 3 pairs, 6 pots), each containing one bean seed, were used. One pair of pots received 2 teaspoons of water every other day (Group A). The second pair of pots received a low Ribose solution (1 teaspoon of D-ribose in 16 oz of water), each pot received 2 teaspoons of this low dose of Ribose every other day (Group B). The final pair of pots received a higher dose of Ribose (1 teaspoon of D-ribose in 4 oz of water), each pot received 2 teaspoons of this higher dose of Ribose every other day (Group C). In each pair of pots, roots were examined at week 1 and 2, by removing the roots of one pot only in each group at the designed test time point with soil emersion in a bucket of water. At week 2 all remaining pots had shoots emerging from the top soil. The roots were weighed and measured for length. […] This discrepancy expanded when the roots were analyzed at 2 weeks. […] The weight of the roots treated with high dose Ribose were appreciably less in weight than both the water and low dose Ribose treated groups.

[3] = test system: plants grown from seed (5 seeds per plot); assay: Plant feeding with ribose for growth (Table 1); type: in vivo, Hosta (H. plantaginea grandiflora); conditions: for Unsprouted: of 5 seeds per plot
Excerpt: (§1) Hosta (H. plantaginea grandiflora) plants were transplanted. The protocol was designed such that half of the plants were supplied with water alone and half of the plants received a ribose based solution, in which powdered D-ribose was mixed in water. All plants were transplanted at the same level in the soil and in like soil. All plants were watered at the same times of day, mid-morning and at dusk. Each plant received the same amount of water/watering (½ liter water at each watering). Results of plant growth data following transplantation are graphically depicted in FIGS. 1 and 2. [table]

beans (B) = assay: Transplants in garden, growth and hardening after transplantation: beans; type: in vivo, bean
Excerpt: as §1

kohlrabi (K) = assay: Transplants in garden, growth and hardening after transplantation: kohlrabi; type: in vivo; conditions: 1-Nov, after transplant
Excerpt: as §1

[4] = Week 1 following seed implantation
[5] = Week 2, plants cut off above the soil, just the roots weighed

## O=C[C@H](O)[C@H](O)[C@H](O)CO [5/500, D-ribose]
Bean seeds [1]; Dark, Day 0 (17-Sep)
  Amount of Growth Between Measurements: 0
  Plant growth-height: 0
  Rate of Growth Between Measurements: 0
Bean seeds [1]; Dark, Day 3 (20-Sep)
  Amount of Growth Between Measurements: 0
  Plant growth-height: 0
  Rate of Growth Between Measurements: 0
Bean seeds [1]; Dark, Day 5 (22-Sep)
  Amount of Growth Between Measurements: 0
  Plant growth-height: 0
  Rate of Growth Between Measurements: 0
  Rate of Growth Overall Thru Date: 0
Bean seeds [1]; Dark, Day 7 (24-Sep)
  Amount of Growth Between Measurements: 5.2
  Plant growth-height: 5.2
  Rate of Growth Between Measurements: 2.60
  Rate of Growth Overall Thru Date: 0.74
Bean seeds [1]; Dark, Day 8 (25-Sep)
  Amount of Growth Between Measurements: 5.9
  Plant growth-height: 11.1
  Rate of Growth Between Measurements: 5.90
  Rate of Growth Overall Thru Date: 1.39
Bean seeds [1]; Dark, Day 9 (26-Sep)
  Amount of Growth Between Measurements: 9.7
  Plant growth-height: 20.8
  Rate of Growth Between Measurements: 9.70
  Rate of Growth Overall Thru Date: 2.31
Bean seeds [1]; Dark, Day 10 (27-Sep)
  Amount of Growth Between Measurements: 9.8
  Plant growth-height: 30.6
  Rate of Growth Between Measurements: 9.80
  Rate of Growth Overall Thru Date: 3.06
Bean seeds [1]; Dark, Day 11 (28-Sep)
  Amount of Growth Between Measurements: 5.2
  Plant growth-height: 35.8
  Rate of Growth Between Measurements: 5.20
  Rate of Growth Overall Thru Date: 3.25
Bean seeds [1]; Dark, Day 12 (29-Sep)
  Amount of Growth Between Measurements: 3.5
  Plant growth-height: 39.3
  Rate of Growth Between Measurements: 3.50
  Rate of Growth Overall Thru Date: 3.28
Bean seeds [1]; Dark, Day 13 (30-Sep)
  Amount of Growth Between Measurements: 5.5
  Plant growth-height: 44.8
  Rate of Growth Between Measurements: 5.50
  Rate of Growth Overall Thru Date: 3.45
Bean seeds [1]; Dark, Day 16 (3-Oct)
  Amount of Growth Between Measurements: 2
  Plant growth-height: 46.8
  Rate of Growth Between Measurements: 0.67
  Rate of Growth Overall Thru Date: 2.93
Bean seeds [1]; Dark, Day 19 (6-Oct)
  Amount of Growth Between Measurements: 0
  Plant growth-height: 46.8
  Rate of Growth Between Measurements: 0.00
  Rate of Growth Overall Thru Date: 2.46
Bean seeds [1]; Light, Day 0 (17-Sep)
  Amount of Growth Between Measurements: 0
  Plant growth-height: 0
  Rate of Growth Between Measurements: 0
Bean seeds [1]; Light, Day 3 (20-Sep)
  Amount of Growth Between Measurements: 0
  Plant growth-height: 0
  Rate of Growth Between Measurements: 0
Bean seeds [1]; Light, Day 5 (22-Sep)
  Amount of Growth Between Measurements: 0
  Plant growth-height: 0
  Rate of Growth Between Measurements: 0
  Rate of Growth Overall Thru Date: 0
Bean seeds [1]; Light, Day 7 (24-Sep)
  Amount of Growth Between Measurements: 0
  Plant growth-height: 0
  Rate of Growth Between Measurements: 0
  Rate of Growth Overall Thru Date: 0.00
Bean seeds [1]; Light, Day 8 (25-Sep)
  Amount of Growth Between Measurements: 0.5
  Plant growth-height: 0.5
  Rate of Growth Between Measurements: 0.50
  Rate of Growth Overall Thru Date: 0.06
Bean seeds [1]; Light, Day 9 (26-Sep)
  Amount of Growth Between Measurements: 1.6
  Plant growth-height: 2.1
  Rate of Growth Between Measurements: 1.60
  Rate of Growth Overall Thru Date: 0.23
Bean seeds [1]; Light, Day 10 (27-Sep)
  Amount of Growth Between Measurements: 8.4
  Plant growth-height: 10.5
  Rate of Growth Between Measurements: 8.40
  Rate of Growth Overall Thru Date: 1.05
Bean seeds [1]; Light, Day 11 (28-Sep)
  Amount of Growth Between Measurements: 6.1
  Plant growth-height: 16.6
  Rate of Growth Between Measurements: 6.10
  Rate of Growth Overall Thru Date: 1.51
Bean seeds [1]; Light, Day 12 (29-Sep)
  Amount of Growth Between Measurements: 5.9
  Plant growth-height: 22.5
  Rate of Growth Between Measurements: 5.90
  Rate of Growth Overall Thru Date: 1.88
Bean seeds [1]; Light, Day 13 (30-Sep)
  Amount of Growth Between Measurements: 3.8
  Plant growth-height: 26.3
  Rate of Growth Between Measurements: 3.80
  Rate of Growth Overall Thru Date: 2.02
Bean seeds [1]; Light, Day 16 (3-Oct)
  Amount of Growth Between Measurements: 2.1
  Plant growth-height: 28.4
  Rate of Growth Between Measurements: 0.70
  Rate of Growth Overall Thru Date: 1.78
Bean seeds [1]; Light, Day 19 (6-Oct)
  Amount of Growth Between Measurements: 0.6
  Plant growth-height: 29
  Rate of Growth Between Measurements: 0.20
  Rate of Growth Overall Thru Date: 1.53

## O=C[C@H](O)[C@H](O)[C@H](O)CO [High Ribose, D-ribose]
Bean seeds [2]; listed as high dose Ribose
  Root appearance: thick
Bean seeds [2]; [4]
  Root Length: 13.8 cm
  Root Weight: 1.46 gm
Bean seeds [2]; Week 2
  Root Length: 14.7 cm
Bean seeds [2]; [5]
  Root Weight: 0.26 gm
Bean seeds [2]; Week 2, plants cut off above the soil, just the roots weighed, listed as high dose Ribose
  Root Weight: less in weight than both the low dose Ribose and water groups

## O=C[C@H](O)[C@H](O)[C@H](O)CO [Low Ribose, D-ribose]
Bean seeds [2]; listed as low dose Ribose
  Root appearance: thicker, shorter roots
Bean seeds [2]; [4]
  Root Length: 13.4 cm
  Root Weight: 1.55 gm
Bean seeds [2]; Week 2
  Root Length: 16.0 cm
Bean seeds [2]; [5]
  Root Weight: 1.01 gm

## O=C[C@H](O)[C@H](O)[C@H](O)CO [R1, ribose]
[3]; 23 June, 5 seeds per plot
  Plant measures, Mean: 1.65 inches
[3]; 23 June
  Unsprouted: 2
[3]; Measured 8 July
  #Plants/blossom: 1
  Plant measures, Mean: 2.9 inches
Beans (B); 1-Nov, after transplant
  Bean measure to the Y: 17 cm and 12 cm
  Bean overall height: 33.5 cm and 18 cm
Beans (B); 9-Sep, before moving
  Bean measure to the Y: 9 cm and 10 cm and 6 cm
Beans (B); 19-Oct, after transplant
  Bean measure to the Y: 16 cm and 10 cm
Beans (B); 29-Sep, first measure after transplant
  Bean measure to the Y: 14 cm and 9.5 cm
Kohlrabi (K)
  Kohlrabi plant measure: 11 and 15.5 and 9.8 and 18

## O=C[C@H](O)[C@H](O)[C@H](O)CO [R2, ribose]
[3]; 23 June, 5 seeds per plot
  Plant measures, Mean: 3.3 inches
[3]; 23 June
  Unsprouted: 1
[3]; Measured 8 July
  #Plants/blossom: 3
  Plant measures, Mean: 5.8 inches

## O=C[C@H](O)[C@H](O)[C@H](O)CO [R3, ribose]
[3]; 23 June, 5 seeds per plot
  Plant measures, Mean: 6.05 inches
[3]; 23 June
  Unsprouted: 0
[3]; Measured 8 July
  #Plants/blossom: 4
  Plant measures, Mean: 9.3 inches
